Assays:
[1] = tested on: isolated mouse liver mitochondria; assay: Oxygen consumption rate of isolated mitochondria (Seahorse XF24); format: biochemical
Source text: (§1) A thorough evaluation of toxicity is critical for advancing TR001 to in vivo studies. […] To more thoroughly examine mitochondrial toxicity, we analyzed oxygen consumption rates (OCRs) using the Seahorse XF24 extracellular flux analyzer. This allowed us to assess the effects of TR001 on mitochondrial respiration and ATP synthesis. […] Consequently respiratory control ratios (i.e., the ratios between ADP-stimulated and basal respiration) were not affected across the concentrations tested (FIG. 5B). Complex III inhibitor antimycin A shuts down the electron transport chain at the bc1 complex and was used to account for oxygen leak.
(§2) Measurement of respiration. Mitochondrial oxygen consumption of isolated mitochondria or HeLa cell monolayer was assessed with the Seahorse Extracellular Flux Analyzer XF24 (Seahorse Bioscience, Billerica, MA, USA). Isolated mouse liver mitochondria: Mitochondrial assay solution contained 220 mm mannitol, 70 mm sucrose, 25 mm MOPS-Tris, 10 mm Pi-Tris, 5 mm MgCl2, 1 mm EGTA-Tris, 0.2% fatty acid free BSA, 5 mm succinate and 2 μm rotenone, pH 7.4. Mitochondria (5 μg, suspended in 50 μL mitochondrial assay solution) were added to each well of an XF24 cell culture microplate, centrifuged at 2000 g for 20 min at 4° C. and then supplemented with 450 μL of mitochondrial assay solution containing 4 mm ADP to initiate the experiments.

[2] = tested on: inner mitochondrial membrane potential; assay: Rhodamine 123 (Rh123) uptake, mitochondrial membrane potential of isolated mouse liver mitochondria; format: biochemical
Source text: We next evaluated the mitochondrial toxicity of the new triazole analogs by testing their ability to interfere with accumulation of the membrane-permeant cationic fluorescent dye rhodamine 123 (Rh123). The mitochondrial uptake of positively charged Rh123 is driven by the inside negative IMM potential, which is built by the respiratory chain or maintained by ATP hydrolysis if certain conditions are met. […] It should be noted, however, that toxicity for these compounds only occurs at ˜10-1000-fold higher concentrations compared to mtPTP inhibition, providing a good therapeutic window.
Assessment of mitochondrial membrane potential. Mitochondrial membrane potential—to evaluate toxicity—of isolated mouse liver mitochondria was assessed based on fluorescence quenching of the cationic fluorescent dye Rh123 upon its accumulation into mitochondrial matrix due to inside negative membrane potential. Compounds that interfere with the build-up or maintenance of IMM potential would shift Rh123 fluorescence to higher values compared to DMSO treated samples. Uncoupler FCCP was used to account for nonspecific fluorescence. First, 0.1 mL of SAB was dispensed to a 96-well black assay plate. A set of wells also contained 0.8 μm FCCP (to prevent Rh123 uptake). The test wells contained a range of concentrations (in 1:2 serial dilutions) of the compounds of interest or 2% DMSO. Then, 0.1 mL of 0.5 mg/mL mitochondria in SAB devoid of respiratory substrates but supplemented with 0.8 μm Rh123 were added to all wells of the assay plate. Fluorescence intensity (ex/em 485/535 nm) was read on a Tecan Infinite F200 plate reader for 7 min and value at 5 min was considered for analysis. EC50s±SE were determined with OriginPro software by applying Hill1 function fitting algorithm on average concentration response data of n=3 independent preparations.

HeLa cells = assay: Oxygen consumption rate of HeLa cell monolayers (Seahorse XF24); format: cell-based; conditions: ~2 h treatment
Source text: as §1
as §2, with “experiments. […]” for “experiments.”

Cc1ccc(Cl)cc1NC(=O)c1cn(-c2ccc(F)c(O)c2)nn1 [TR001, N-(5-chloro-2-methylphenyl)-1-(4-fluoro-3-hydroxyphenyl)-1H-1,2,3-triazole-4-carboxamide]
rates of oxygen consumption (ADP stimulation, oligomycin, FCCP) [1]: no effect | respiratory control ratios ([1]; across the concentrations tested): not affected | interference with buildup of IMM potential (in words) ([2]; Rh123 uptake assay): did not interfere with IMM potential | EC50 ([2]; interference with Rh123 uptake to mitochondria, average ± SEM, n = 3, read-out: Rh123 uptake EC50): > 40 µM | mitochondrial dysfunction (OCR) in intact cells (HeLa cells): did not cause mitochondrial dysfunction

— patent publication US12398110B2, “Second generation inhibitors of mitochondrial permeability transition pore with improved plasma stability” (Oregon Health & Science University, priority 2019, dated 2025)
